Experimental data published in patent US20260364168A1, “USE OF PROTEIN KINASE C (PKC) ACTIVATING COMPOUNDS AS AN ADJUVANT” (priority 2022, published 2026).
pEC50: −log10 of the molar value. Where two headings read alike, the source gives them in different places.

Legend:
NFκB [1] = experiment: NFκB luciferase reporter gene assay in HeLa-NFκB luciferase reporter cell line; format: cell-based; conditions: 16 h, 37 °C, luciferase/CTG normalized; read-out: NFκB-luc HeLa cells EC50
Method: The PKC activator compounds were evaluated for their effect on NFκB expression using a luciferase reporter gene expression system. (The indicators “K-101,” “K101” and “K-101A” may be used interchangeably in this disclosure and appended figures).
A HeLa-NFκB luciferase reporter cell line (Wuxi Biology) was used to assess a group of PKC activator compounds for their ability to activate NFκB-driven transcription. Two sets of cells at 20000 cells/well were plated, grown overnight, and then treated for 16 h at 37 °C with DMSO, 6 doses of each compound, or TNF-α (final concentration of 10 ng/mL, positive control) in triplicates. One set of cells was assayed for luciferase activity (Promega, Cat #E1500) and the other set was assayed to determine the number of viable cells (for cell number normalization) using CellTiter-Glo (CTG) kit (Promega, Cat #G7570) according to manufacture's procedures. Normalized data (luciferase value/CTG value) were analyzed using GraphPad Prism5 to calculate EC50 for each compound (see Table 3).

mouse splenocytes = experiment: IFN-γ ELISpot in mouse splenocytes; format: cell-based, C57BL/6J mice
Method: Production of IFN-γ in response to infection or other stimuli is a hallmark of innate and adaptive immunity. To measure the effect of direct immune stimulation, freshly isolated splenocytes from three C57BL/6J mice were seeded in ELISpot plates pre-coated with anti-IFN-γ antibody (Mabtech, #3321-4AST-2) at 1 million splenocytes per well in OptiVitro® T Cell Serum-free Medium (Excellbio, Cat #TE000-N021). […] Detection of the IFN-γ spot-forming cells was performed according to the manufacture's protocol. Briefly, cells were removed from the ELISpot plates. After washing with PBS, the ELISpot plates were incubated with […] of the R4-6A2-biotin detection antibody for 2 hours at room temperature (RT) and then with streptavidin-ALP (1:1000) at RT for 1 hour. BCIP/NBT chromogen substrate solution was added to the plates until distinct spots emerged. The spots (IFN-γ-secreting cells) were counted using an AID ELISPOT reader.

human PBMC cells = experiment: cytokine/chemokine gene expression (TaqMan) in human PBMC; conditions: 4 h
Method: Materials and methods: 100 million frozen human PBMC cells were purchased from Allcells (100 million/vial). The cells were thawed and recovered for one day before 1.5-1.8 million cells in 900 μl RPMI1640 with 10% heat-inactivated FBS were seeded in each well of 24-well plates. Various compounds in DMSO stock (500×) were diluted 50-fold with the same media to make 10× compound stock for most compounds. 1 μL of 5 mg/mL PMA was diluted to 99 μL of the media to make 50 μg/mL PMA. For PMA with ionomycin treatment condition, 1.5 μL of 50 μg/mL PMA and 3 μL of 500 μg/mL ionomycin were added to 145.5 μL of the media to make 10× compound stock. Sources of the compounds are as follows: PMA from Abcam (Abcam #ab120297); Ionomycin from Sigma (Sigma #I0634); Resiquimod from Sellect Chem. (Selleckchem #S8133); and LPS from Sigma (Sigma #L6143).
Each treatment condition was performed in duplicates. After treatment, mRNA was extracted from cells and samples from duplicates were combined for TaqMan gene expression assays (ThermoFisher) in triplicates. Expression of 19 genes (IL-1β, IL-2, IL-4, IL-6, IL-8, IL-10, IL-13, IL-18, IL-12p70/IL-12A, IL-12p40/IL-12B, IFN-α, IFN-γ, GM-CSF/CSF2, CCL2/MCP-1, MIP1a/CCL3, TNF-α, MX1, OAS1, ISG15) along with two housekeeping gene controls, 18S and GAPDH, was determined. Target gene expression in each sample was determined by relative quantification (RQ) using the comparative Ct (ΔΔCT) method. This method measures the Ct difference (ΔCT) between target gene and the housekeeping genes (18S & GAPDH), then compares the ΔCT values of treated samples to DMSO-treated control samples. The mean ΔCT value of the DMSO-treated control from two independent DMSO-treated control samples was used. The relative expression level of target gene was calculated by using the equation:
relative expression=2^−ΔΔCT

DC cells = conditions: Yan et al. 2010; cited from earlier work
[2] = system: antigen-specific T cell responses; conditions: Yan et al. 2010; cited from earlier work
NFκB [3] = conditions: in vitro, TLR5-dependent and -independent; Oh et al. 2014; cited from earlier work
[4] = system: antigen-specific antibody as well as T cell responses; conditions: in vivo; Oh et al. 2014; cited from earlier work
[5] = 0.03 μM, vs DMSO, 240 min, 0.03 µM
[6] = 0.10 μM, vs DMSO, 240 min, 0.1 µM

In the case of `CC1=C[C@H]2[C@@]3(O)[C@H](C)C[C@]4(OC(=O)C(N)CCCCCCc5ccccc5)[C@H]([C@@H]3C=C(CO)C[C@]2(O)C1=O)C4(C)C` (some centres unmarked), the pEC50 (NFκB [1]) was 7.52 to 8.00, the “IFN-γ secreting cells/million splenocytes” value (mouse splenocytes; 60 nM, 24 h, Mouse 1) was 245 cells/million splenocytes and the “IFN-γ secreting cells/million splenocytes” value (mouse splenocytes; 60 nM, 24 h, Mouse 2) was 137 cells/million splenocytes. The “IFN-γ secreting cells/million splenocytes” value (mouse splenocytes; 60 nM, 24 h, Mouse 3) was 110 cells/million splenocytes, the “IFN-γ secreting cells/million splenocytes” value (mouse splenocytes; 200 nM, 24 h, Mouse 1) was “saturated” and the “IFN-γ secreting cells/million splenocytes” value (mouse splenocytes; 200 nM, 24 h, Mouse 2) was “saturated”. For the same compound, the “IFN-γ secreting cells/million splenocytes” value (mouse splenocytes; 200 nM, 24 h, Mouse 3) was “saturated”, the “dose-response of IFN-γ production” value (mouse splenocytes; 60 and 200 nM, in words) was “a trend of dose-response” and the minimal effective concentration (mouse splenocytes; Splenocyte, mouse splenocytes, 24 h, read-out: concentration (as low as) at which IFN-γ production was stimulated) was 0.06 µM. For the same compound, the “ISG15 gene relative expression” value (human PBMC cells; 0.03 μM, vs DMSO) was 0.97, the “MX1 gene relative expression” value (human PBMC cells; 0.03 μM, vs DMSO) was 0.65 and the “CCL2 gene relative expression” value (human PBMC cells; [5]) was 4.55. For the same compound, the “GM-CSF gene relative expression” value (human PBMC cells; [5]) was 1.89, the “IFN-α gene relative expression” value (human PBMC cells; [5]) was 1.66 and the “IFNγ gene relative expression” value (human PBMC cells; [5]) was 1.62. The “IL-1β gene relative expression” value (human PBMC cells; [5]) was 0.54, the “IL-2 gene relative expression” value (human PBMC cells; [5]) was 1.71 and the “IL-6 gene relative expression” value (human PBMC cells; [5]) was 0.74. For the same compound, the “IL-8 gene relative expression” value (human PBMC cells; [5]) was 0.80, the “IL-10 gene relative expression” value (human PBMC cells; [5]) was 1.27 and the “IL-12p40 gene relative expression” value (human PBMC cells; [5]) was 0.74. For the same compound, the “IL-12p70 gene relative expression” value (human PBMC cells; [5]) was 1.02, the “IL-13 gene relative expression” value (human PBMC cells; [5]) was 0.40 and the “IL-18 gene relative expression” value (human PBMC cells; [5]) was 0.47. The “MIP1a (CCL3) gene relative expression” value (human PBMC cells; [5]) was 1.86, the “OAS1 gene relative expression” value (human PBMC cells; [5]) was 0.64 and the “TNF-α gene relative expression” value (human PBMC cells; [5]) was 1.38. The “CCL2 gene relative expression” value (human PBMC cells; [6]) was 3.12, the “GM-CSF gene relative expression” value (human PBMC cells; [6]) was 7.74 and the “IFN-α gene relative expression” value (human PBMC cells; [6]) was 0.73. The “IFNγ gene relative expression” value (human PBMC cells; [6]) was 3.47, the “IL-1β gene relative expression” value (human PBMC cells; [6]) was 1.58 and the “IL-2 gene relative expression” value (human PBMC cells; [6]) was 7.65. For the same compound, the “IL-4 gene relative expression” value (human PBMC cells; [6]) was 1.61, the “IL-8 gene relative expression” value (human PBMC cells; [6]) was 0.53 and the “IL-10 gene relative expression” value (human PBMC cells; [6]) was 0.48. The “IL-12p70 gene relative expression” value (human PBMC cells; [6]) was 0.93, the “IL-13 gene relative expression” value (human PBMC cells; [6]) was 47.45 and the “IL-18 gene relative expression” value (human PBMC cells; [6]) was 0.09. The “ISG15 gene relative expression” value (human PBMC cells; [6]) was 1.16, the “MIP1a (CCL3) gene relative expression” value (human PBMC cells; [6]) was 2.39 and the “MX1 gene relative expression” value (human PBMC cells; [6]) was 0.72. The “OAS1 gene relative expression” value (human PBMC cells; [6]) was 0.55, the “TNF-α gene relative expression” value (human PBMC cells; [6]) was 4.04 and the fold induction at 0.3 µM (human PBMC cells; Homo sapiens, PBMC, read-out: CCL2 gene relative expression, 0.3 μM, 4 h, vs DMSO) was 2.09. It also gave a fold induction at 0.3 µM (human PBMC cells; Homo sapiens, PBMC, read-out: GM-CSF gene relative expression, 0.3 μM, 4 h, vs DMSO) of 10.5, a fold induction at 0.3 µM (human PBMC cells; Homo sapiens, PBMC, read-out: IFN-α gene relative expression, 0.3 μM, 4 h, vs DMSO) of 0.95 and a fold induction at 0.3 µM (human PBMC cells; Homo sapiens, PBMC, read-out: IFNγ gene relative expression, 0.3 μM, 4 h, vs DMSO) of 18.6. The fold induction at 0.3 µM (human PBMC cells; Homo sapiens, PBMC, read-out: IL-1β gene relative expression, 0.3 μM, 4 h, vs DMSO) was 1.53, the fold induction at 0.3 µM (human PBMC cells; Homo sapiens, PBMC, read-out: IL-2 gene relative expression, 0.3 μM, 4 h, vs DMSO) was 3.41 and the fold induction at 0.3 µM (human PBMC cells; Homo sapiens, PBMC, read-out: IL-4 gene relative expression, 0.3 μM, 4 h, vs DMSO) was 2.57. For the same compound, the fold induction at 0.3 µM (human PBMC cells; Homo sapiens, PBMC, read-out: IL-6 gene relative expression, 0.3 μM, 4 h, vs DMSO) was 4.85, the fold induction at 0.3 µM (human PBMC cells; Homo sapiens, PBMC, read-out: IL-8 gene relative expression, 0.3 μM, 4 h, vs DMSO) was 0.59 and the fold induction at 0.3 µM (human PBMC cells; Homo sapiens, PBMC, read-out: IL-10 gene relative expression, 0.3 μM, 4 h, vs DMSO) was 0.06. It also gave a fold induction at 0.1 µM (human PBMC cells; Homo sapiens, PBMC, read-out: IL-12p40 gene relative expression, 0.10 μM, 4 h, vs DMSO) of 0.45, a fold induction at 0.3 µM (human PBMC cells; Homo sapiens, PBMC, read-out: IL-12p40 gene relative expression, 0.3 μM, 4 h, vs DMSO) of 0.69 and a fold induction at 0.3 µM (human PBMC cells; Homo sapiens, PBMC, read-out: IL-12p70 gene relative expression, 0.3 μM, 4 h, vs DMSO) of 0.61. It also gave a fold induction at 0.3 µM (human PBMC cells; Homo sapiens, PBMC, read-out: IL-13 gene relative expression, 0.3 μM, 4 h, vs DMSO) of 78.9, a fold induction at 0.3 µM (human PBMC cells; Homo sapiens, PBMC, read-out: IL-18 gene relative expression, 0.3 μM, 4 h, vs DMSO) of 0.04 and a fold induction at 0.3 µM (human PBMC cells; Homo sapiens, PBMC, read-out: ISG15 gene relative expression, 0.3 μM, 4 h, vs DMSO) of 1.14. It also gave a fold induction at 0.3 µM (human PBMC cells; Homo sapiens, PBMC, read-out: MIP1a (CCL3) gene relative expression, 0.3 μM, 4 h, vs DMSO) of 3.37, a fold induction at 0.3 µM (human PBMC cells; Homo sapiens, PBMC, read-out: MX1 gene relative expression, 0.3 μM, 4 h, vs DMSO) of 0.57 and a fold induction at 0.3 µM (human PBMC cells; Homo sapiens, PBMC, read-out: OAS1 gene relative expression, 0.3 μM, 4 h, vs DMSO) of 0.42. The fold induction at 0.3 µM (human PBMC cells; Homo sapiens, PBMC, read-out: TNF-α gene relative expression, 0.3 μM, 4 h, vs DMSO) was 4.13.

In the case of `CCC/C=C/C=C/C(=O)O[C@H]1/C(=C/C(=O)OC)C[C@H]2C[C@H]([C@@H](C)O)OC(=O)C[C@H](O)C[C@@H]3C[C@H](OC(C)=O)C(C)(C)[C@](O)(C[C@@H]4C/C(=C/C(=O)OC)C[C@H](/C=C/C(C)(C)[C@]1(O)O2)O4)O3` [Bryostatin], the “chemokine expression in DC cells” value (DC cells) is given as “induces chemokine expression in DC cells” and the “antigen-specific T cell responses from a peptide-based vaccine” value [2] is given as “stimulates an antigen-specific T cell responses”.

In the case of `CCCCCCCCCCCCCC(=O)O[C@@H]1[C@@H](C)[C@@]2(O)[C@@H](C=C(CO)C[C@]3(O)C(=O)C(C)=C[C@@H]23)[C@@H]2C(C)(C)[C@]12OC(C)=O` [PMA, Phorbol 12-myristate 13-acetate], the “PKC-dependent NFκB activation” value (NFκB [3]) is listed as “induce PKC-dependent NFκB activation” and the “antigen-specific antibody as well as T cell responses” value [4] is listed as “boosts antigen-specific antibody as well as T cell responses in vivo”.
